pIC50: −log10 of the molar value.
Each compound was assayed against T1, androgen receptor (Homo sapiens, UniProt P10275) (assay: AR Antagonist Cell Assay (MMTV-luciferase reporter, DHT-stimulated)). Details: MDA-MB453-MMTV clone 54-19 cells; antagonism of 100 pM DHT, 17 hr, luciferase readout.
T1 sequence (P10275 1-920 Q868H): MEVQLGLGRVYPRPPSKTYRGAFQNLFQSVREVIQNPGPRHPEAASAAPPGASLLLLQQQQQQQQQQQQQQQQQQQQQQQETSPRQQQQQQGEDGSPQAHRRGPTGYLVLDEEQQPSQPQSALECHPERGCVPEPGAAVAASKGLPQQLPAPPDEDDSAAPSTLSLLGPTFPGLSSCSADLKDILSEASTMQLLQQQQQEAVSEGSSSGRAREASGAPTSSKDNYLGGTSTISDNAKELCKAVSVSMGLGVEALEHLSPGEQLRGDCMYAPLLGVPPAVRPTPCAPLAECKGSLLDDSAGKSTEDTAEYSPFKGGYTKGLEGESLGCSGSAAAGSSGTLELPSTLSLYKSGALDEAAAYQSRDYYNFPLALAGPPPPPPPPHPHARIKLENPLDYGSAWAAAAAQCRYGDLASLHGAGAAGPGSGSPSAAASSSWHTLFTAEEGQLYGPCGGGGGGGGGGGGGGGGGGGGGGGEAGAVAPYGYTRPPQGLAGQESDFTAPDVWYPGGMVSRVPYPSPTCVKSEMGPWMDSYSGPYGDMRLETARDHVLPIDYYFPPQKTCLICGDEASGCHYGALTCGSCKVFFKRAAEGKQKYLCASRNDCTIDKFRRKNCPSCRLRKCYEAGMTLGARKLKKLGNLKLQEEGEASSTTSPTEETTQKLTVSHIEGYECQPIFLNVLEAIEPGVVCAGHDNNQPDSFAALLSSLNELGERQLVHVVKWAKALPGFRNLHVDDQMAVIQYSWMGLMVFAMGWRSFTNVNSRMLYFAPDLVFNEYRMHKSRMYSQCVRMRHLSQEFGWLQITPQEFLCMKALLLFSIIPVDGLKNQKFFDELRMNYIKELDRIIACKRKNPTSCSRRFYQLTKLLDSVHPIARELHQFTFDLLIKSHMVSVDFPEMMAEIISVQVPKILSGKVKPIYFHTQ
Type: cell-based
Procedure: The compounds ability to antagonize the effects of androgen on the androgen receptor were determined in the protocol described immediately below.
Experimental Procedure for AR Antagonist Cell Assay
Cell line: MDA-MB453-MMTV clone 54–19. This cell line is a stable transfected cell line with MDA-MB453 cell background (human breast tumor cell expressing high level of androgen receptor). A MMTV minimal promoter containing ARE was first cloned in front of a firefly luciferase reporter gene. Then the cascade was cloned into transfection vector pUV120puro. Electroporation method was used for transfecting MDA-MB-453 cell. Puromycin resistant stable cell line was selected.
Cell Culture Media and Reagents:
Culture medium: DMEM (high glucose, Gibco cat #: 11960-044), 10% FBS, and 1% L-glutamine
Plating medium: DMEM (phenol red free), 10% charcoal treated HyClone serum, 1% L-glutamine
Assay medium: DMEM (phenol red free), 1% charcoal treated HyClone serum, 1% L-glutamine, and 1% penicillin/streptomycin
3× luciferase buffer: 2% beta-mercaptoethanol, 0.6% ATP, 0.0135% luciferine in cell lysis buffer
• 1. Cells are maintained in culture medium, splitting cells when they reach 80–90% confluence • 2. To test compounds, 10,000 cells/well are plated to opaque 96 cell culture plate in 100 ul/well plating medium, culture for overnight at 37° C. in cell culture incubator • 3. Carefully remove plating medium, then add 80 ul/well of pre-warmed assay medium, add 10 ul/well testing compound (final concentration at 10 uM or 1 uM), incubate at 37° C. for 30 minutes • 4. Add 10 ul/well freshly prepared DHT (final concentration at 100 pM) to each well, incubate at 37° C. for 17 hr (overnight) • 5. Add 50 ul/well 3× luciferase buffer, incubate at room temperature for 5 minutes, then count on Luminometer.
The fold induction over background by 100 pM DHT in the absence of testing compounds is standardized as 100% and experimental result is expressed as percentage of inhibition by testing compounds.

Row | SMILES | pIC50
1 | CC(C)(C)CCNS(=O)(=O)c1ccc(Cc2ccc3[nH]c(=O)cc(C(F)(F)F)c3c2)cc1 [Example 54, N-(3,3-Dimethylbutyl)-4-(2-oxo-4-trifluoromethyl-1,2-dihydroquinolin-6-ylmethyl)-benzenesulfonamide] | < 5.00
2 | Cc1ccc(CNS(=O)(=O)c2ccc(Cc3ccc4[nH]c(=O)cc(C(F)(F)F)c4c3)cc2)o1 [Example 55, N-(5-Methylfuran-2-ylmethyl)-4-(2-oxo-4-trifluoromethyl-1,2-dihydroquinolin-6-ylmethyl)-benzenesulfonamide] | < 5.00
3 | O=c1cc(C(F)(F)F)c2cc(Cc3ccc(S(=O)(=O)NCCc4ccccc4)cc3)ccc2[nH]1 [Example 57, 4-(2-Oxo-4-trifluoromethyl-1,2-dihydroquinolin-6-ylmethyl)-N-phenethylbenzenesulfonamide] | < 5.00
4 | Cc1cccc(CNS(=O)(=O)c2ccc(Cc3ccc4[nH]c(=O)cc(C(F)(F)F)c4c3)cc2)c1 [Example 58, N-(3-Methylbenzyl)-4-(2-oxo-4-trifluoromethyl-1,2-dihydroquinolin-6-ylmethyl)-benzenesulfonamide] | < 5.00
5 | O=c1cc(C(F)(F)F)c2cc(Cc3ccc(S(=O)(=O)NCCCCc4ccccc4)cc3)ccc2[nH]1 [Example 70, 4-(2-Oxo-4-trifluoromethyl-1,2-dihydroquinolin-6-ylmethyl)-N-(4-phenylbutyl)-benzenesulfonamide] | < 5.00
6 | CCOc1ccccc1CNS(=O)(=O)c1ccc(Cc2ccc3[nH]c(=O)cc(C(F)(F)F)c3c2)cc1 [Example 71, N-(2-Ethoxybenzyl)-4-(2-oxo-4-trifluoromethyl-1,2-dihydroquinolino-6-ylmethyl)-benzenesulfonamide] | < 5.00
7 | O=c1cc(C(F)(F)F)c2cc(Cc3ccc(S(=O)(=O)NC(CCO)c4ccccc4)cc3)ccc2[nH]1 (stereo not shown) [Example 72, N-(3-Hydroxy-1-phenylpropyl)-4-(2-oxo-4-trifluoromethyl-1,2-dihydroquinolin-6-ylmethyl)-benzenesulfonamide] | < 5.00
8 | CSc1ccccc1CNS(=O)(=O)c1ccc(Cc2ccc3[nH]c(=O)cc(C(F)(F)F)c3c2)cc1 [Example 73, N-(2-Methylsulfanylbenzyl)-4-(2-oxo-4-trifluoromethyl-1,2-dihydroquinolin-6-ylmethyl)-benzenesulfonamide] | < 5.00
9 | O=c1cc(C(F)(F)F)c2cc(Cc3ccc(S(=O)(=O)NCCc4ccc(Cl)cc4)cc3)ccc2[nH]1 [Example 74, N-[2-(4-Chlorophenyl)ethyl]-4-(2-oxo-4-trifluoromethyl-1,2-dihydroquinolin-6-ylmethyl)-benzenesulfonamide] | < 5.00
10 | O=c1cc(C(F)(F)F)c2cc(Cc3ccc(S(=O)(=O)NCc4cc(Cl)ccc4F)cc3)ccc2[nH]1 [Example 76, N-(5-Chloro-2-fluorobenzyl)-4-(2-oxo-4-trifluoromethyl-1,2-dihydroquinolin-6-ylmethyl)-benzenesulfonamide] | < 5.00
11 | O=c1cc(C(F)(F)F)c2cc(Cc3ccc(S(=O)(=O)NCc4cccc(Cl)c4F)cc3)ccc2[nH]1 [Example 77, N-(3-Chloro-2-fluorobenzyl)-4-(2-oxo-4-trifluoromethyl-1,2-dihydroquinolin-6-ylmethyl)-benzenesulfonamide] | < 5.00
12 | O=c1cc(C(F)(F)F)c2cc(Cc3ccc(S(=O)(=O)NCc4c(F)cccc4Cl)cc3)ccc2[nH]1 [Example 78, N-(2-Chloro-6-fluorobenzyl)-4-(2-oxo-4-trifluoromethyl-1,2-dihydroquinolin-6-ylmethyl)-benzenesulfonamide] | < 5.00
13 | COc1cc(CNS(=O)(=O)c2ccc(Cc3ccc4[nH]c(=O)cc(C(F)(F)F)c4c3)cc2)cc(OC)c1 [Example 80, N-(3,5-Dimethoxybenzyl)-4-(2-oxo-4-trifluoromethyl-1,2-dihydroquinolin-6-ylmethyl)-benzenesulfonamide] | < 5.00
14 | CC(C)(C)SCCNS(=O)(=O)c1ccc(Cc2ccc3[nH]c(=O)cc(C(F)(F)F)c3c2)cc1 [Example 82, N-(2-tert-Butylsulfanylethyl)-4-(2-oxo-4-trifluoromethyl-1,2-dihydroquinolin-6-ylmethyl)-benzenesulfonamide] | < 5.00
15 | O=c1cc(C(F)(F)F)c2cc(Cc3ccc(S(=O)(=O)NCc4ccccc4OC(F)F)cc3)ccc2[nH]1 [Example 83, N-(2-Difluoromethoxybenzyl)-4-(2-oxo-4-trifluoromethyl-1,2-dihydroquinolin-6-ylmethyl)-benzenesulfonamide] | < 5.00
16 | Cc1ccc(F)c(CNS(=O)(=O)c2ccc(Cc3ccc4[nH]c(=O)cc(C(F)(F)F)c4c3)cc2)c1Cl [Example 84, N-(2-Chloro-6-fluoro-3-methylbenzyl)-4-(2-oxo-4-trifluoromethyl-1,2-dihydroquinolin-6-ylmethyl)-benzenesulfonamide] | < 5.00

More lines, in order of rising pIC50, values ahead:

Row | pIC50 | SMILES
17 | 4.99 | O=c1cc(C(F)(F)F)c2cc(Cc3ccc(S(=O)(=O)NCCc4c[nH]c5ccccc45)cc3)ccc2[nH]1 [Example 79, N-[2-(1H-Indol-3-yl)ethyl]-4-(2-oxo-4-trifluoromethyl-1,2-dihydroquinolin-6-ylmethyl)-benzenesulfonamide]
18 | 5.03 | O=c1cc(C(F)(F)F)c2cc(Cc3ccc(S(=O)(=O)NCCc4ccccn4)cc3)ccc2[nH]1 [Example 59, 4-(2-Oxo-4-trifluoromethyl-1,2-dihydroquinolin-6-ylmethyl)-N-(2-pyridin-2-ylethyl)-benzenesulfonamide]
19 | 5.04 | O=c1cc(C(F)(F)F)c2cc(Cc3ccc(S(=O)(=O)NCCCn4ccnc4)cc3)ccc2[nH]1 [Example 60, N-(3-Imidazol-1-ylpropyl)-4-(2-oxo-4-trifluoromethyl-1,2-dihydroquinolin-6-ylmethyl)-benzenesulfonamide]
20 | 5.08 | Cc1ccc(F)cc1CNS(=O)(=O)c1ccc(Cc2ccc3[nH]c(=O)cc(C(F)(F)F)c3c2)cc1 [Example 67, N-(5-Fluoro-2-methylbenzyl)-4-(2-oxo-4-trifluoromethyl-1,2-dihydroquinolin-6-ylmethyl)-benzenesulfonamide]
21 | 5.12 | O=C1CCCN1CCCNS(=O)(=O)c1ccc(Cc2ccc3[nH]c(=O)cc(C(F)(F)F)c3c2)cc1 [Example 68, N-[3-(2-Oxopyrrolidin-1-yl)propyl]-4-(2-oxo-4-trifluoromethyl-1,2-dihydroquinolin-6-ylmethyl)-benzenesulfonamide]
22 | 5.17 | CN1CCN(CCCNS(=O)(=O)c2ccc(Cc3ccc4[nH]c(=O)cc(C(F)(F)F)c4c3)cc2)CC1 [Example 75, N-[3-(4-Methylpiperazin-1-yl)propyl]-4-(2-oxo-4-trifluoromethyl-1,2-dihydroquinolin-6-ylmethyl)-benzenesulfonamide]
23 | 5.18 | O=c1cc(C(F)(F)F)c2cc(Cc3ccc(S(=O)(=O)NCCN4CCOCC4)cc3)ccc2[nH]1 [Example 62, N-(2-Morpholin-4-ylethyl)-4-(2-oxo-4-trifluoromethyl-1,2-dihydroquinolin-6-ylmethyl)-benzenesulfonamide]
24 | 5.27 | CC(CNS(=O)(=O)c1ccc(Cc2ccc3[nH]c(=O)cc(C(F)(F)F)c3c2)cc1)c1ccccc1 (stereo not shown) [Example 65, 4-(2-Oxo-4-trifluoromethyl-1,2-dihydroquinolin-6-ylmethyl)-N-(2-phenylpropyl)-benzenesulfonamide]
25 | 5.44 | O=c1cc(C(F)(F)F)c2cc(Cc3ccc(S(=O)(=O)NCCN4CCCC4)cc3)ccc2[nH]1 [Example 56, 4-(2-Oxo-4-trifluoromethyl-1,2-dihydroquinolin-6-ylmethyl)-N-(2-pyrrolidin-1-yl-ethyl)-benzenesulfonamide]
